Source: patent US10239875B2, “Naphthyridinyl hydrazine derivatives as potent peripheral analgesic agents” (KING SAUD UNIVERSITY, priority 2017, dated 2019)

Tested on: Albino mice
Test: mouse writhing test (acetic acid-induced), peripheral analgesic activity
Format: in vivo
Details: for No. of writhes/20 min: 30 min before i.p. acetic acid 0.7% 10 mL/kg, mean ± S.E.; for Protection (%) / analgesic activity compared with acetylsalicylic acid / placebo control (in words): writhing test; for Protection (%): versus placebo control mean; for analgesic activity compared with acetylsalicylic acid / placebo control (in words): 20 mg/kg orally vs acetylsalicylic acid 150 mg/kg, Dunnett's test P < 0.05
Procedure: The test compounds synthesized in Examples 2-11 were tested for analgesic activity as follows. Albino mice of both sexes (27-30 g body weight each) were used in the experiments. Mice used in this experiment were obtained from the Animal House Colony at the National Research Centre (NRC), Egypt. All animals were housed under standard conditions of natural 12-hour light and dark cycles with free access to food and water. Animals were allowed to adapt to the laboratory environment for one week before use in experimentation. All animal procedures were first approved by the Ethics Committee of the NRC, Egypt, and were performed in accordance with standard recommendations and guidelines for proper care and use of laboratory animals.
The peripheral analgesic activities of compounds 1 to 10 were determined in mice using the standard writhing test. Seventy-two mice were divided into 12 groups of 6 mice. Mice of the first (placebo control) and last (active control) groups were treated orally (p.o.) with the vehicle (5 mL/kg) or acetyl salicylic acid (150 mg/kg), respectively. Animals of the second to eleventh groups were orally given one of the selected compounds at doses of 20 mg/kg. Once 30 minutes passed after administration of medication, each mouse received an intraperitoneal injection of acetic acid (0.7% aqueous solution) in a dose of 10 mL/kg to induce writhing. The mice were then placed in transparent boxes, and the number of writhes per animal was counted for 20 minutes after acetic acid injection. The “protection %” was calculated using the following equation: Protection (%)=[Control mean−Treated mean/Control mean]×100.

[1] = acetylsalicylic acid 150 mg/kg orally in DW
[2] = test compound 20 mg/kg orally in DMSO

Structure (SMILES)	No. of writhes/20 min [1] [writhes/20 min]	Protection (%) [1] [%]	No. of writhes/20 min [2] [writhes/20 min]	Protection (%) [2] [%]	analgesic activity compared with acetylsalicylic acid / placebo control (in words)
CC(=O)Oc1ccccc1C(=O)O [Acetylsalicylic acid, acetylsalicylic acid, reference compound]	17.4 ± 1.57	78.47	–	–	–
Cc1ccc2c(NN=Cc3ccc(N4CCOCC4)cc3)cc(C)nc2n1 [Compound 1]	–	–	24.8 ± 1.02	69.31	analgesic activity close to that of acetylsalicylic acid
Cc1ccc2c(NN=Cc3ccc(N4CCNCC4)cc3)cc(C)nc2n1 [Compound 2]	–	–	39.6 ± 3.14	50.99	–
Cc1ccc2c(NN=Cc3ccc(N4CCCCC4)cc3)cc(C)nc2n1 [Compound 3]	–	–	36.2 ± 2.58	55.20	–
Cc1ccc2c(NN=Cc3ccc(N4CCN(C)CC4)cc3)cc(C)nc2n1 [Compound 4]	–	–	44.8 ± 2.85	44.55	–
CC(=NNc1cc(C)nc2nc(C)ccc12)c1ccc(N2CCOCC2)cc1 [Compound 5]	–	–	29.2 ± 2.50	63.86	–
CC(=NNc1cc(C)nc2nc(C)ccc12)c1ccc(N2CCNCC2)cc1 [Compound 6]	–	–	26.2 ± 1.32	67.57	analgesic activity close to that of acetylsalicylic acid
CC(=NNc1cc(C)nc2nc(C)ccc12)c1ccc(N2CCCCC2)cc1 [Compound 7]	–	–	23.6 ± 2.16	70.79	analgesic activity close to that of acetylsalicylic acid
